Measurements published in paper PMC10247784, “Physiological activation of human and mouse bitter taste receptors by bile acids” (Communications Biology, 2023).
Several values for one entry are separate records, joined by “and”; a condition that tells them apart may be missing. Equal entries are not always repeated.

Target: T1, human TAS2R4 (Homo sapiens, UniProt Q9NYW5)
T1 construct: expressed in transfected cells; host or cells: HEK293T-Gα16gust44
T1 sequence (Q9NYW5 1-299): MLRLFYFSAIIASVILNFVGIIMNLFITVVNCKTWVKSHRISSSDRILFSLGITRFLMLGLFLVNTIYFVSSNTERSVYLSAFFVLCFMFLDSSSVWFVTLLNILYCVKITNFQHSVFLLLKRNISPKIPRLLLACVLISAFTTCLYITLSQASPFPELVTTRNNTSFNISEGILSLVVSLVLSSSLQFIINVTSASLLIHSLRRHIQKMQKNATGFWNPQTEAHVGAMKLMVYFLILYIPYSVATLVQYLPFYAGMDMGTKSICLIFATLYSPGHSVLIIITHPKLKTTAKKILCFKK
Experiment: Calcium imaging assay (FLIPR), HEK293T-Gα16gust44 cells transfected with human TAS2R4
Assay type: cell-based
Procedure: This set of bile acids was chosen because of their commercial availability in high purities, their diversity within the class of bile acids and their previous detection and quantitation in human blood. Stock solutions were prepared in DMSO.
As basal growth medium for the HEK293T-Gα16gust44 cell line[17],[59] served Dulbecco’s modified eagle medium (DMEM) (Thermo Fisher Scientific, Darmstadt, Germany) supplemented with 10 % fetal bovine serum (Sigma-Aldrich, Steinheim, Germany), 2 mM L-glutamine (Sigma-Aldrich, Steinheim, Germany), 100 units/ml penicillin (Sigma Aldrich, Steinheim, Germany) and 100 µg/ml streptomycin (Sigma Aldrich, Steinheim, Germany). Growth conditions were 37 °C, 5 % CO2 and saturated air-humidity[60].
HEK293T-Gα16gust44 cells were seeded on poly-D-lysine (10 µg/ml) coated 96-well plates to reach a confluence of 40-60 % the next day. For transient transfection 150 ng of plasmid DNA containing the receptor of interest and 0.3 µl lipofectamine 2000 (Thermo Fisher Scientific, Darmstadt, Germany) per well were used and transfection took place according to the manual of lipofectamine 2000. […] The empty vector DNA (mock) was transfected as negative control[14],[41].
Cells were loaded using the calcium-sensitive fluorescent dye Fluo-4-AM (Abcam, Cambridge, Great Britain) in the presence of 2.5 mM probenecid (Sigma-Aldrich, Steinheim, Germany) the day after transfection[13],[41]. 1 h after loading, cells were washed with C1 buffer using a BioTek Cell Washer, incubated in the dark for half an hour and washed again. For automated agonist application and measurement of fluorescence changes, a FLIPR^TETRA device (Molecular Devices, San José, United States) was used. Viability of cells was tested by application of 100 nM Somatostatin 14 (Bachem, Bubendorf, Switzerland)[42].
Measured data were negative control corrected by subtracting the signal of the mock-transfected cells and exported to Microsoft Excel using the FLIPR software ScreenWorks 4.2. In Microsoft Excel software, standardization of maximum fluorescence intensities to the basal fluorescence and normalization to the buffer-only control was done to calculate the relative fluorescence changes (ΔF/F).
Initial screening experiments performed in duplicate wells were confirmed by at least one replication and representative traces were selected for display. All dose-response relationships were determined by three independent experiments (biological replicates) performed in duplicates (technical replicates). Threshold concentrations, defined as lowest substance concentrations leading to statistically significant elevated fluorescence changes in receptor-transfected cells compared with empty vector-transfected cells, were determined using SigmaPlot with Student’s t-test to evaluate statistical significance (p < 0.01).

Structure (SMILES): C[C@H](CCC(=O)O)[C@H]1CC[C@H]2[C@@H]3CC[C@@H]4C[C@H](O)CC[C@]4(C)[C@H]3C[C@H](O)[C@]12C [Deoxycholic Acid, deoxycholic acid]
- Efficacy = maximal amplitude (ΔF/F) (TAS2R4, bile acids, mean): 0.08533
- Efficacy (maximal amplitude ΔF/F), individual data points (TAS2R4, bile acids, single replicates, listed as DCA): 0.07628 and 0.1105 and 0.06917
- RLU, fluorescence trace (Time (s) 0): 0 RLU
- RLU, fluorescence trace (Time (s) 2): -24.43 RLU
- RLU, fluorescence trace (Time (s) 4): -23.5542 RLU
- RLU, fluorescence trace (Time (s) 6): -22.8766 RLU
- RLU, fluorescence trace (Time (s) 8): -1.905 RLU
- RLU, fluorescence trace (Time (s) 12): -21.8648 RLU
- RLU, fluorescence trace (Time (s) 14): -18.1346 RLU
- RLU, fluorescence trace (Time (s) 16): -52.8215 RLU
- RLU, fluorescence trace (Time (s) 18): -24.2064 RLU
- RLU, fluorescence trace (Time (s) 18.766 (TCA, TLCA: 18.782)): -22.8202 RLU
- RLU, fluorescence trace (Time (s) 20.781 (TCA, TLCA: 20.782)): -95.6069 RLU
- RLU, fluorescence trace (Time (s) 22.781 (TCA, TLCA: 22.782)): -71.6568 RLU
- RLU, fluorescence trace (Time (s) 24.781 (TCA, TLCA: 24.782)): -40.8819 RLU
- RLU, fluorescence trace (Time (s) 26.781 (TCA, TLCA: 26.782)): -9.811 RLU
- RLU, fluorescence trace (Time (s) 28.781 (TCA, TLCA: 28.782)): 38.1772 RLU
- RLU, fluorescence trace (Time (s) 30.781 (TCA, TLCA: 30.782)): 89.531 RLU
- RLU, fluorescence trace (Time (s) 32.781 (TCA, TLCA: 32.782)): 109 RLU
- RLU, fluorescence trace (Time (s) 34.781 (TCA, TLCA: 34.782)): 155.799 RLU
- RLU, fluorescence trace (Time (s) 36.781 (TCA, TLCA: 36.782)): 198.766 RLU
- RLU, fluorescence trace (Time (s) 38.781 (TCA, TLCA: 38.782)): 215 RLU
- RLU, fluorescence trace (Time (s) 40.781 (TCA, TLCA: 40.782)): 245.601 RLU
- RLU, fluorescence trace (Time (s) 42.781 (TCA, TLCA: 42.782)): 273.234 RLU
- RLU, fluorescence trace (Time (s) 44.781 (TCA, TLCA: 44.782)): 289.793 RLU
- RLU, fluorescence trace (Time (s) 46.781 (TCA, TLCA: 46.782)): 293.169 RLU
- RLU, fluorescence trace (Time (s) 48.781 (TCA, TLCA: 48.782)): 315.257 RLU
- RLU, fluorescence trace (Time (s) 50.781 (TCA, TLCA: 50.782)): 327.06 RLU
- RLU, fluorescence trace (Time (s) 52.781 (TCA, TLCA: 52.782)): 336.965 RLU
- RLU, fluorescence trace (Time (s) 54.781 (TCA, TLCA: 54.782)): 356.774 RLU
- RLU, fluorescence trace (Time (s) 56.781 (TCA, TLCA: 56.782)): 358.021 RLU
- RLU, fluorescence trace (Time (s) 58.781 (TCA, TLCA: 58.782)): 377.086 RLU
- RLU, fluorescence trace (Time (s) 60.781 (TCA, TLCA: 60.782)): 371.413 RLU
- RLU, fluorescence trace (Time (s) 62.781 (TCA, TLCA: 62.782)): 354.175 RLU
- RLU, fluorescence trace (Time (s) 64.781 (TCA, TLCA: 64.782)): 367.028 RLU
- RLU, fluorescence trace (Time (s) 66.781 (TCA, TLCA: 66.782)): 369.018 RLU
- RLU, fluorescence trace (Time (s) 68.781 (TCA, TLCA: 68.782)): 401.767 RLU
- RLU, fluorescence trace (Time (s) 70.781 (TCA, TLCA: 70.782)): 369.499 RLU
- RLU, fluorescence trace (Time (s) 72.781 (TCA, TLCA: 72.782)): 371.417 RLU
- RLU, fluorescence trace (Time (s) 74.781 (TCA, TLCA: 74.782)): 395.575 RLU
- RLU, fluorescence trace (Time (s) 76.781 (TCA, TLCA: 76.782)): 372.212 RLU
- RLU, fluorescence trace (Time (s) 78.781 (TCA, TLCA: 78.782)): 381.123 RLU
- RLU, fluorescence trace (Time (s) 80.781 (TCA, TLCA: 80.782)): 377.573 RLU
- RLU, fluorescence trace (Time (s) 82.781 (TCA, TLCA: 82.782)): 366.542 RLU
- RLU, fluorescence trace (Time (s) 84.781 (TCA, TLCA: 84.782)): 344.412 RLU
- RLU, fluorescence trace (Time (s) 86.781 (TCA, TLCA: 86.782)): 365.264 RLU
- RLU, fluorescence trace (Time (s) 88.781 (TCA, TLCA: 88.782)): 345.388 RLU
- RLU, fluorescence trace (Time (s) 90.781 (TCA, TLCA: 90.782)): 349.245 RLU
- RLU, fluorescence trace (Time (s) 92.781 (TCA, TLCA: 92.782)): 348.005 RLU
- RLU, fluorescence trace (Time (s) 94.781 (TCA, TLCA: 94.782)): 360.114 RLU
- RLU, fluorescence trace (Time (s) 96.781 (TCA, TLCA: 96.782)): 353.364 RLU
- RLU, fluorescence trace (Time (s) 98.781 (TCA, TLCA: 98.782)): 356.212 RLU
- RLU, fluorescence trace (Time (s) 100.781 (TCA, TLCA: 100.782)): 338.006 RLU
- RLU, fluorescence trace (Time (s) 102.781 (TCA, TLCA: 102.782)): 349.375 RLU
- RLU, fluorescence trace (Time (s) 104.781 (TCA, TLCA: 104.782)): 357.725 RLU
- RLU, fluorescence trace (Time (s) 106.781 (TCA, TLCA: 106.782)): 339.949 RLU
- RLU, fluorescence trace (Time (s) 108.781 (TCA, TLCA: 108.782)): 333.434 RLU
- RLU, fluorescence trace (Time (s) 110.781 (TCA, TLCA: 110.782)): 336.947 RLU
- RLU, fluorescence trace (Time (s) 112.781 (TCA, TLCA: 112.782)): 335.627 RLU
- RLU, fluorescence trace (Time (s) 114.781 (TCA, TLCA: 114.782)): 349.641 RLU
- RLU, fluorescence trace (Time (s) 116.781 (TCA, TLCA: 116.782)): 340.242 RLU
- RLU, fluorescence trace (Time (s) 118.781 (TCA, TLCA: 118.782)): 328.36 RLU
- RLU, fluorescence trace (Time (s) 120.781 (TCA, TLCA: 120.782)): 338.913 RLU
- RLU, fluorescence trace (Time (s) 122.781 (TCA, TLCA: 122.782)): 364.894 RLU
- RLU, fluorescence trace (Time (s) 124.781 (TCA, TLCA: 124.782)): 333.589 RLU
- RLU, fluorescence trace (Time (s) 126.781 (TCA, TLCA: 126.782)): 335.132 RLU
- RLU, fluorescence trace (Time (s) 128.781 (TCA, TLCA: 128.782)): 319.908 RLU
- RLU, fluorescence trace (Time (s) 130.781 (TCA, TLCA: 130.782)): 356.29 RLU
- RLU, fluorescence trace (Time (s) 132.781 (TCA, TLCA: 132.782)): 335.417 RLU
- RLU, fluorescence trace (Time (s) 134.781 (TCA, TLCA: 134.782)): 327.442 RLU
- RLU, fluorescence trace (Time (s) 136.781 (TCA, TLCA: 136.782)): 323.134 RLU
- RLU, fluorescence trace (Time (s) 137.547): 342.47 RLU
- RLU, fluorescence trace (Time (s) 143.547): 333.389 RLU
- RLU, fluorescence trace (Time (s) 149.547): 328.288 RLU
- RLU, fluorescence trace (Time (s) 155.547): 355.055 RLU
- RLU, fluorescence trace (Time (s) 161.547): 338.156 RLU
- RLU, fluorescence trace (Time (s) 167.547): 335.87 RLU
- RLU, fluorescence trace (Time (s) 173.547): 351.387 RLU
- RLU, fluorescence trace (Time (s) 179.547): 368.586 RLU
- RLU, fluorescence trace (Time (s) 185.547): 363.986 RLU
- RLU, fluorescence trace (Time (s) 191.547): 372.236 RLU
- RLU, fluorescence trace (Time (s) 197.547): 331.461 RLU
- RLU, fluorescence trace (Time (s) 203.547): 345.855 RLU
- RLU, fluorescence trace (Time (s) 209.547): 348.008 RLU
- RLU, fluorescence trace (Time (s) 215.547): 318.834 RLU
- RLU, fluorescence trace (Time (s) 221.547): 327.885 RLU
- RLU, fluorescence trace (Time (s) 227.547): 345.298 RLU
- RLU, fluorescence trace (Time (s) 233.547): 352.884 RLU
- RLU, fluorescence trace (Time (s) 239.547): 389.33 RLU
- RLU, fluorescence trace (Time (s) 245.547): 399.649 RLU
- RLU, fluorescence trace (Time (s) 293.547): 411.409 RLU
- RLU, fluorescence trace (Time (s) 299.547): 406.435 RLU
- RLU, fluorescence trace (Time (s) 305.547): 380.1 RLU
- RLU, fluorescence trace (Time (s) 311.547): 396.715 RLU
- RLU, fluorescence trace (Time (s) 317.547): 351.706 RLU
- RLU, fluorescence trace (Time (s) 323.547): 391.589 RLU
- RLU, fluorescence trace (Time (s) 329.547): 362.796 RLU
- RLU, fluorescence trace (Time (s) 335.547): 360.917 RLU
- RLU, fluorescence trace (Time (s) 341.547): 350.479 RLU
- RLU, fluorescence trace (Time (s) 347.547): 349.654 RLU
- RLU, fluorescence trace (Time (s) 353.547): 326.897 RLU
- RLU, fluorescence trace (Time (s) 359.547): 343.746 RLU
- Activation threshold concentration TAS2R4 (lowest concentration with significantly increased fluorescence vs empty vector (p < 0.01)): 3 µM
